Measurements reported in patent US20180148429A1 (SELVITA S.A., priority 2015, published 2018).

Biological target: T1, Human recombinant His-tagged PFKFB3 (Homo sapiens, UniProt Q16875)
T1 construct: His; made in house
Test: PFKFB3 IC50 determination assay (in vitro kinase assay, modified ADP-Glo system)
Assay type: biochemical
Settings: not given
Method: PFKFB3 IC50 Determination Assay
In vitro kinase assay used to determine IC50 values for tested inhibitors is based on a modified ADP-Glo™ system (Promega) and consists of two parts:
1. Kinase reaction—performed in optimized conditions. At this step PFKFB3 phosphorylates its substrate fructose-6-phosphate using ATP as a source of phosphate to produce fructose-2,6-bisphosphate and ADP. Reaction is performed at Km values for ATP and substrate using optimized buffer composition and time of the reaction. Human recombinant His-tagged PFKFB3 (PFKFB3 BATCH II SEC) with confirmed activity is produced and purified in-house.
2. Detection of ADP as a product of the reaction using ADP-Glo™ system. This part is conducted by using the commercially available kit ADP-Glo™ Kinase Assay (Promega, cat. No# V9103) according to manufacturer's instruction, modified by 5× dilutions of assay reagents (both ADP-Glo™ Reagent and Kinase Detection Solution).
Test compounds are dissolved in DMSO and then transferred to the V-bottom 96-well plate.
15 μL per well of Mix 1 is transferred to assay wells of 96-well white plate. […] Total reaction volume is 30 μL per well. Samples are tested in duplicates. Final concentration of DMSO in the reaction is 6.7%. Conditions needed for performing PFKFB3 (PFKFB3 BATCH II SEC) in vitro kinase assay are given below:
This protocol is based on Technical Bulletin, ADP-Glo™ Kinase Assay (Promega) and is adapted to 96-well plate containing 30 μL reaction mixture:
The plate is incubated for 90 minutes on a shaker at rt. […] Plate is incubated for 40 minutes on a shaker at rt, protected from light. Luminescence is measured in the plate reader Synergy 2 (BioTek).
Luminescent readouts for compounds tested in 10 concentrations (routinely from 100 μM to […], […] serial dilutions) in duplicates, as well as for positive control, are first normalized to no-substrate negative control by its subtraction. In the next step, % of normalized positive control is calculated for each data point and plotted against test compound concentration:
% of control—percent of positive control normalized to no-substrate negative control Lumcpd—luminescence of test compound Lumneg—luminescence of no-substrate negative control Lumpos—luminescence of positive control
IC50 parameter is determined by the GraphPad Prism 5.0 software
[log(inhibitor) vs. response−Variable slope (four parameters)].

T1 sequence (Q16875 whole entry): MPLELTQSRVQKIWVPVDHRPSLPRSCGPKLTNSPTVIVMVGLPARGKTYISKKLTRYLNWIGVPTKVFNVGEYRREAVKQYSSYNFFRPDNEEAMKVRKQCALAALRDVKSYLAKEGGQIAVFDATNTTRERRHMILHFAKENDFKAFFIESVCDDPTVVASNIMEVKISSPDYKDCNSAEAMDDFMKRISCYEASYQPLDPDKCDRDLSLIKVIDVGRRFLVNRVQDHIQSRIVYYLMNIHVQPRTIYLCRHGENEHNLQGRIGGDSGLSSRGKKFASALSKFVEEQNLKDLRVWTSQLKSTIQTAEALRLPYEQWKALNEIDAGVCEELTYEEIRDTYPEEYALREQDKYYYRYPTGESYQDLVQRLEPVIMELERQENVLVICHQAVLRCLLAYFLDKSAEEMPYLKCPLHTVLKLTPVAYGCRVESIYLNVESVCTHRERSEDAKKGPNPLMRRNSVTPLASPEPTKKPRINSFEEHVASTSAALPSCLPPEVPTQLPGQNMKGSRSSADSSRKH

SMILES | IC50 [nM]
COc1ccc(C(Nc2cc(-c3ccc4ccn(C)c4c3)c3nccnc3c2)c2cnnn2C)cn1 (stereo not shown) [Example 299, N-[(6-methoxypyridin-3-yl)(1-methyl-1H-1,2,3-triazol-5-yl)methyl]-8-(1-methyl-1H-indol-6-yl)quinoxalin-6-amine] | 1 to 1000
Cc1nc(CNc2cc(-c3ccc4ccn(C)c4c3)c3nccnc3c2)n[nH]1 [Example 283, N-[(5-methyl-1H-1,2,4-triazol-3-yl)methyl]-8-(1-methyl-1H-indol-6-yl)quinoxalin-6-amine] | 1000 to 10000
COc1ccc([C@H](Nc2cc(-c3ccc4ccn(C)c4c3)c3nccnc3c2)c2cnnn2C)cn1 [Example 326, N-[(S)-(6-methoxypyridin-3-yl)(1-methyl-1H-1,2,3-triazol-5-yl)methyl]-8-(1-methyl-1H-indol-6-yl)quinoxalin-6-amine] | 1 to 1000

Same assay, conditions: ADP-Glo; ATP 20 μM (Km), fructose-6-phosphate 2 μM (Km), 25 nM PFKFB3, 2 h, rt; read-out: PFKFB3 IC50

SMILES | IC50 [nM]
CN(C)C(=O)N1CCC(C(Nc2cc(-c3ccc4ccn(C)c4c3)c3nccnc3c2)c2cccnc2)CC1 (stereo not shown) [Example 300, N,N-dimethyl-4-({[8-(1-methyl-1H-indol-6-yl)quinoxalin-6-yl]amino}(pyridin-3-yl)methyl)piperidine-1-carboxamide] | 1 to 1000
Cc1csc2ccc(-c3cc(NC(c4cccnc4)c4cncn4C)cc4nccnc34)cc12 (stereo not shown) [Example 313, 8-(3-methyl-1-benzothiophen-5-yl)-N-[(1-methyl-1H-imidazol-5-yl)(pyridin-3-yl)methyl]quinoxalin-6-amine] | 1 to 1000
CC(=O)N1CC[C@@H](Nc2cc(-c3ccc4ccn(C)c4c3)c3nccnc3c2)C1 [Example 154] | 1000 to 10000
CC(=O)N[C@H]1CC[C@H]([C@@H](Nc2cc(-c3ccc4ccn(C)c4c3)c3nccnc3c2)c2cccnc2)CC1 [Example 327, N-[(1R,4r)-4-[(R)-{[8-(1-methyl-1H-indol-6-yl)quinoxalin-6-yl]amino}(pyridin-3-yl)methyl]cyclohexyl]acetamide] | 1000 to 10000
Cn1ccc2ccc(-c3cc(NC4CCCN(C(=O)C5CC5)CC4)cc4nccnc34)cc21 (stereo not shown) [Example 169] | 1 to 1000
Cn1ccc2ccc(-c3cc(NC(c4cccnc4)C4CCN(CC(=O)O)CC4)cc4nccnc34)cc21 (stereo not shown) [compound 252, 2-[4-({[8-(1-methyl-1H-indol-6-yl)quinoxalin-6-yl]amino}(pyridin-3-yl)methyl)piperidin-1-yl]acetic acid] | 1000 to 10000
CCC(=O)N1CCC(Nc2cc(-c3ccc4ccn(C)c4c3)c3nccnc3c2)C1 (stereo not shown) [Example 164] | 1000 to 10000
Cc1cc(CNc2cc(-c3ccc4ccn(C)c4c3)c3nccnc3c2)sn1 [Example 280, N-[(3-methyl-1,2-thiazol-5-yl)methyl]-8-(1-methyl-1H-indol-6-yl)quinoxalin-6-amine] | 1000 to 10000
CNC(=O)CN1CCC(C(Nc2cc(-c3ccc4ccn(C)c4c3)c3nccnc3c2)c2cccnc2)CC1 (stereo not shown) [Example 275, N-methyl-2-[4-({[8-(1-methyl-1H-indol-6-yl)quinoxalin-6-yl]amino}(pyridin-3-yl)methyl)piperidin-1-yl]acetamide] | 1 to 1000
CN1C2CCC1CC(C(Nc1cc(-c3ccc4ccn(C)c4c3)c3nccnc3c1)c1cccnc1)C2 (stereo not shown) [Example 304, 8-(1-methyl-1H-indol-6-yl)-N-({8-methyl-8-azabicyclo[3.2.1]octan-3-yl}(pyridin-3-yl)methyl)quinoxalin-6-amine] | 1 to 1000
CC(C)C(=O)N1CCC(C(Nc2cc(-c3ccc4ccn(C)c4c3)c3nccnc3c2)c2cccnc2)CC1 (stereo not shown) [Example 237] | 1 to 1000
Cn1ccc2ccc(-c3cc(N[C@H]4CCN(c5nc6ccccc6[nH]5)C4)cc4nccnc34)cc21 [Example 161, N-[(3S)-1-(1H-1,3-benzodiazol-2-yl)pyrrolidin-3-yl]-8-(1-methyl-1H-indol-6-yl)quinoxalin-6-amine] | 1000 to 10000
CC(=O)N1CCCC(Nc2cc(-c3ccc4ccn(C)c4c3)c3nccnc3c2)CC1 (stereo not shown) [Example 168] | 1 to 1000
CC(=O)N1CCC([C@H](Nc2cc(-c3ccc4scc(C)c4c3)c3nccnc3c2)c2cccnc2)CC1 [Example 311, 1-{4-[(S)-{[8-(3-methyl-1-benzothiophen-5-yl)quinoxalin-6-yl]amino}(pyridin-3-yl)methyl]piperidin-1-yl}ethan-1-one] | 1 to 1000
Cn1ccc2ccc(-c3cc(NC4CCN(S(C)(=O)=O)C4)cc4nccnc34)cc21 (stereo not shown) [Example 163] | 1 to 1000
Cn1ccc2ccc(-c3cc(NC(c4cccnc4)C4CCN(S(C)(=O)=O)CC4)cc4nccnc34)cc21 (stereo not shown) [Example 318, N-[(1-methanesulfonylpiperidin-4-yl)(pyridin-3-yl)methyl]-8-(1-methyl-1H-indol-6-yl)quinoxalin-6-amine] | 1 to 1000
CC(=O)N1CCC[C@@H](Nc2cc(-c3ccc4ccn(C)c4c3)c3nccnc3c2)C1 [Example 157] | 1 to 1000

Now from value to compound:

IC50 [nM] | SMILES
1000 to 10000 | COc1ccc(C(Nc2cc(-c3ccc4ccn(C)c4c3)c3nccnc3c2)c2ccnn2C)cn1 (stereo not shown) [Example 317, N-[(6-methoxypyridin-3-yl)(1-methyl-1H-pyrazol-5-yl)methyl]-8-(1-methyl-1H-indol-6-yl)quinoxalin-6-amine]
1000 to 10000 | Cn1cc(CNc2cc(-c3ccc4ccn(C)c4c3)c3nccnc3c2)cn1 [Example 306, 8-(1-methyl-1H-indol-6-yl)-N-[(1-methyl-1H-pyrazol-4-yl)methyl]quinoxalin-6-amine]
1000 to 10000 | Cn1ccc2ccc(-c3cc(NC(c4cccnc4)c4cncnc4)cc4nccnc34)cc21 (stereo not shown) [Example 257]
1000 to 10000 | Cc1ncc(CNc2cc(-c3ccc4ccn(C)c4c3)c3nccnc3c2)o1 [Example 312, N-[(2-methyl-1,3-oxazol-5-yl)methyl]-8-(1-methyl-1H-indol-6-yl)quinoxalin-6-amine]
1000 to 10000 | Cn1cnc(C(Nc2cc(-c3ccc4ccn(C)c4c3)c3nccnc3c2)c2cccnc2)c1 (stereo not shown) [Example 290, N-[(1-methyl-1H-imidazol-4-yl)(pyridin-3-yl)methyl]-8-(1-methyl-1H-indol-6-yl)quinoxalin-6-amine]
1 to 1000 | Cn1ccc2ccc(-c3cc(NC(c4cccnc4)C4CCC(N)CC4)cc4nccnc34)cc21 (stereo not shown) [Example 308, N-[(4-aminocyclohexyl)(pyridin-3-yl)methyl]-8-(1-methyl-1H-indol-6-yl)quinoxalin-6-amine]
1 to 1000 | COc1ccc(C(Nc2cc(-c3ccc4scc(C)c4c3)c3nccnc3c2)c2cncn2C)cn1 (stereo not shown) [Example 315, N-[(6-methoxypyridin-3-yl)(1-methyl-1H-imidazol-5-yl)methyl]-8-(3-methyl-1-benzothiophen-5-yl)quinoxalin-6-amine]
1 to 1000 | Cn1ccc2ccc(-c3cc(NCc4ccnnc4)cc4nccnc34)cc21 [Example 322, 8-(1-methyl-1H-indol-6-yl)-N-(pyridazin-4-ylmethyl)quinoxalin-6-amine]
1 to 1000 | CC(=O)N1CCC(C(Nc2cc(-c3ccc4ccn(C)c4c3)c3nccnc3c2)c2cnnn2C)CC1 (stereo not shown) [Example 266, 1-{4-[(1-methyl-1H-1,2,3-triazol-5-yl)({[8-(1-methyl-1H-indol-6-yl)quinoxalin-6-yl]amino})methyl]piperidin-1-yl}ethan-1-one]
1000 to 10000 | CC(=O)N1CC(C(Nc2cc(-c3ccc4ccn(C)c4c3)c3nccnc3c2)c2cccnc2)C1 (stereo not shown) [Example 289, 1-[3-({[8-(1-methyl-1H-indol-6-yl)quinoxalin-6-yl]amino}(pyridin-3-yl)methyl)azetidin-1-yl]ethan-1-one]
1 to 1000 | Cn1ccc2ccc(-c3cc(NC(C)(c4cccnc4)c4cccnc4)cc4nccnc34)cc21 [Example 320, N-[1,1-bis(pyridin-3-yl)ethyl]-8-(1-methyl-1H-indol-6-yl)quinoxalin-6-amine]
10000 to 100000 | COc1ccc(C(c2cccnc2)N(C)c2cc(-c3ccc4ccn(C)c4c3)c3nccnc3c2)cn1 (stereo not shown) [Example 297, N-[(6-methoxypyridin-3-yl)(pyridin-3-yl)methyl]-N-methyl-8-(1-methyl-1H-indol-6-yl)quinoxalin-6-amine]
1 to 1000 | COc1cc(C(Nc2cc(-c3ccc4ccn(C)c4c3)c3nccnc3c2)c2cccnc2)ccn1 (stereo not shown) [Example 240, N-[(2-methoxypyridin-4-yl)(pyridin-3-yl)methyl]-8-(1-methyl-1H-indol-6-yl)quinoxalin-6-amine]
1 to 1000 | COc1ccc(C(Nc2cc(-c3ccc4sc(N)nc4c3)c3nccnc3c2)c2cccnc2)cn1 (stereo not shown) [Example 295, 8-(2-amino-1,3-benzothiazol-5-yl)-N-[(6-methoxypyridin-3-yl)(pyridin-3-yl)methyl]quinoxalin-6-amine]
